The source of these data is patent US20020019394A1, “Bicyclic sulfonyl amino inhibitors of factor Xa” (priority 2000, published 2002).

One test addresses factor Xa (Homo sapiens, UniProt P00742). The test is described as follows: Factor Xa amidolytic assay (chromogenic substrate S-2765).
Another test has as its target thrombin (Homo sapiens, UniProt P00734). The test is described as follows: Thrombin amidolytic assay (Chromozym TH).
The target of another test is prothrombinase complex (Homo sapiens, UniProt P00742). The test is described as follows: Prothrombinase inhibition assay, plasma free system. The format is biochemical. The procedure:
The prothrombinase inhibition assay is performed in a plasma free system with modifications to the method described by Sinha, U. et al., Thromb. […] Specifically, the activity of the prothrombinase complex is determined by measuring the time course of thrombin generation using the p-nitroanilide substrate Chromozym TH. […] Aliquots from the complex-inhibitor mixture are added to prothrombin (1 nM) and Chromozym TH (0.1 mM). […] Eight different concentrations of inhibitor are assayed in duplicate. A standard curve of thrombin generation by an equivalent amount of untreated complex is used for determination of percent inhibition.

The next test concerns the target TPA (Homo sapiens, UniProt P00750). The test is described as follows: In vitro protease activity assay, TPA. The format is biochemical. From the text: (§1) Evaluation of the compounds of this invention is guided by in vitro protease activity assays (see below) and in vivo studies to evaluate antithrombotic efficacy, and effects on hemostasis and hematological parameters (see below).

In a further test the target is APC (Homo sapiens, UniProt P04070). The test is described as follows: In vitro protease activity assay, APC. It counts as biochemical.
APC, sequence (P04070 212-450 limits assumed): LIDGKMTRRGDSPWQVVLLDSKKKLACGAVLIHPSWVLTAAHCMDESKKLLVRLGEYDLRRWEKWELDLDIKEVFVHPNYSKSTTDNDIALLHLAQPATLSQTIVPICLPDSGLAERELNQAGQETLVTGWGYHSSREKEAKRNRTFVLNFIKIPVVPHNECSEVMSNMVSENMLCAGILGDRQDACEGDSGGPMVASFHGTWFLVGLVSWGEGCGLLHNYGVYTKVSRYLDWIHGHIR
APC, sequence (P04070 43-197 limits assumed): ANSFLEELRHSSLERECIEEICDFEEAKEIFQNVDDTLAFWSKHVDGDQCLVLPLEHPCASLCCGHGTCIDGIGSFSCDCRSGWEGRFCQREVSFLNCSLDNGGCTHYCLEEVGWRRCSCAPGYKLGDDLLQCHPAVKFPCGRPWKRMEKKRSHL
Text: as §1

The next test has as its target T1, PLASMIN (Homo sapiens, UniProt P00747).
T1 construct: PLASMIN
The test is described as follows: In vitro protease activity assay, plasmin. The format is biochemical.
Text: as §1

Where [1] appears, read: Table 6, read-out: IC50 (nM) Prothrombinase.
The mark [2] stands for this setting: Table 4, read-out: IC50 (nM) Prothrombinase.

Like-named read-outs stand apart in the source and are kept apart here.

prothrombinase complex, sequence (P00742 235-488 limits assumed): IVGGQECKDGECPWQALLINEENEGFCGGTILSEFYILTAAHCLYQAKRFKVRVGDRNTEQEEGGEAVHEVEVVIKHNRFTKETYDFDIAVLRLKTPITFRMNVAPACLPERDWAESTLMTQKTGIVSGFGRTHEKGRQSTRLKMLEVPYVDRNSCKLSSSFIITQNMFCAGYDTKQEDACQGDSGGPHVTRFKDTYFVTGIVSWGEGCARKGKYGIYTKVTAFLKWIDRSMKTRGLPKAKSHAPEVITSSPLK
prothrombinase complex, sequence (P00742 41-179 limits assumed): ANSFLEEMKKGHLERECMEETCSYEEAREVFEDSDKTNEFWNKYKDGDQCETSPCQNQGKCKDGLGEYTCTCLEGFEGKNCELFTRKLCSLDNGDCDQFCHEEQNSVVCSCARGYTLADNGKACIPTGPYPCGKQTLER
prothrombinase complex, sequence (P12259 29-737 partner limits assumed): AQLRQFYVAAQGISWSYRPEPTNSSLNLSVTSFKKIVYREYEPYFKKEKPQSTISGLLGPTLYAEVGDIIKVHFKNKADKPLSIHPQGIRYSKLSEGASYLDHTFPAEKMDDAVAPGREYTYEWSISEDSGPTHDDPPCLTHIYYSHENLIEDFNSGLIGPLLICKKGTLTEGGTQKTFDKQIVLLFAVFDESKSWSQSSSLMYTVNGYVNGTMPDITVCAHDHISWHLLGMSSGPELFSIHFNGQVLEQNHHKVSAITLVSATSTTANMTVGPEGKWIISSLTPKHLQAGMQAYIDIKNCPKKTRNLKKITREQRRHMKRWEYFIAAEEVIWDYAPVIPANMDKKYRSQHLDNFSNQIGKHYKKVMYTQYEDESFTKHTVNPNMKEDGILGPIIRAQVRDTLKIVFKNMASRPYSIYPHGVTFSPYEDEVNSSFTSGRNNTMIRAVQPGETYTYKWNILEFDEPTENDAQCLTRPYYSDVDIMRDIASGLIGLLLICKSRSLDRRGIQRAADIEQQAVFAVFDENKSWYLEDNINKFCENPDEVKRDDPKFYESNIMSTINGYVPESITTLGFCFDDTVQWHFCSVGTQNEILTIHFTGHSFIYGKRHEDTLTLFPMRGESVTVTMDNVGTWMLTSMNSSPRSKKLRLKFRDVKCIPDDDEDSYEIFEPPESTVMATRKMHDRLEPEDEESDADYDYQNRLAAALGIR
prothrombinase complex, sequence (P12259 1574-2224 partner limits assumed): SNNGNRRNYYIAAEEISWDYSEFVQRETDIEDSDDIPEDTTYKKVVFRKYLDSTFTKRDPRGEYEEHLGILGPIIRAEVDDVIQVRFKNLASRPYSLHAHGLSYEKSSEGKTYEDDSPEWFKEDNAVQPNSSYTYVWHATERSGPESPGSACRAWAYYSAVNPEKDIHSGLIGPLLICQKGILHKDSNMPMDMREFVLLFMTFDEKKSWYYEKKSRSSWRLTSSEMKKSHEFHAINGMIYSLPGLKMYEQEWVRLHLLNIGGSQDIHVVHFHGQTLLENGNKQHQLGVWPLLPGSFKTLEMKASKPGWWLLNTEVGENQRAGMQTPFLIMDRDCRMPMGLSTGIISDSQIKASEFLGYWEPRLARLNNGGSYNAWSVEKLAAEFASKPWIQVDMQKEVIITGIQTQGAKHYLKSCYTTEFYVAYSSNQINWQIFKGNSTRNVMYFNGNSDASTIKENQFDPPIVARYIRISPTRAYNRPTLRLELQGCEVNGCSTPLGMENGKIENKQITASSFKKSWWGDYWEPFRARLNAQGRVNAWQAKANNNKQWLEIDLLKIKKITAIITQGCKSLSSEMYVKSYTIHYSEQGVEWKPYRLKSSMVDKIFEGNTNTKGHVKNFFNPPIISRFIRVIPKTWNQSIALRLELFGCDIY
factor Xa, sequence (P00742 235-488 limits assumed): as the sequence (P00742 235-488 limits assumed) above
factor Xa, sequence (P00742 41-179 limits assumed): as the sequence (P00742 41-179 limits assumed) above
T1 sequence (P00747 581-810 limits assumed, species assumed): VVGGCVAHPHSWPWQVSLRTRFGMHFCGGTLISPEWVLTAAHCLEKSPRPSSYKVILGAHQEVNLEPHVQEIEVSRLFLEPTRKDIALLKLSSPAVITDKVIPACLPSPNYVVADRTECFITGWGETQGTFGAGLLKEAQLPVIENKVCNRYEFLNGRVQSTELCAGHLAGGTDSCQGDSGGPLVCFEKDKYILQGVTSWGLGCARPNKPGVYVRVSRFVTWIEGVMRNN
T1 sequence (P00747 97-580 limits assumed, species assumed): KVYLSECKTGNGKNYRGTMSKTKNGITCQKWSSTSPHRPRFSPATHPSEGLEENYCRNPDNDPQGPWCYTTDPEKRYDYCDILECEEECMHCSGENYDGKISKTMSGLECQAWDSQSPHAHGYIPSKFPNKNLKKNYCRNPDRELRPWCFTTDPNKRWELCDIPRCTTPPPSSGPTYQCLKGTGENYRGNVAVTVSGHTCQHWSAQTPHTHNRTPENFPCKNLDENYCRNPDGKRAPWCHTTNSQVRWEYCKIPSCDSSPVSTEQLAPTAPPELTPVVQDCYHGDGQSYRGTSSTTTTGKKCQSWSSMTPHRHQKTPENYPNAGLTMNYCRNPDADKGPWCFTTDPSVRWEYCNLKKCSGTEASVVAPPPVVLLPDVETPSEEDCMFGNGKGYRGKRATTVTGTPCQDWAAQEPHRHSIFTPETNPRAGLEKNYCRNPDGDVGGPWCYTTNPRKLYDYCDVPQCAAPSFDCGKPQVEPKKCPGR
TPA, sequence (P00750 36-562, species assumed): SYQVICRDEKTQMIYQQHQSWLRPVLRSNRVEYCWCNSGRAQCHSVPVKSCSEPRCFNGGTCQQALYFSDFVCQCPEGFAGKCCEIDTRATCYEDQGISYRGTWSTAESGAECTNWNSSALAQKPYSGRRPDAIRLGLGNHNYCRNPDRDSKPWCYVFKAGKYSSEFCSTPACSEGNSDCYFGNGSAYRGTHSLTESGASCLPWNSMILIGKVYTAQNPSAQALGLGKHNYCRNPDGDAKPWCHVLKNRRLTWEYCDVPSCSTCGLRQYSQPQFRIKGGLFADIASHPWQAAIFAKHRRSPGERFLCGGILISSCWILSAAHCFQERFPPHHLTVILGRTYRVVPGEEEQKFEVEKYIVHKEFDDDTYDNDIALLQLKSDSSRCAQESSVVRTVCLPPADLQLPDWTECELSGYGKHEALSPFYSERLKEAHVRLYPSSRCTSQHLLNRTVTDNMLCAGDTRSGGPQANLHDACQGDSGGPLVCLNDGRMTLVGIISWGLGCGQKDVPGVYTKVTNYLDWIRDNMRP
Procedure for factor Xa: In the assays for thrombin, prothrombinase and factor Xa, a synthetic chromogenic substrate is added to a solution containing test compound and the enzyme of interest and the residual catalytic activity of that enzyme is determined spectrophotometrically. The IC50 of a compound is determined from the substrate turnover. […] The factor Xa and thrombin assays are performed at room temperature, in 0.02 M Tris.HCl buffer, pH 7.5, containing 0.15 M NaCl.

In the case of `CS(=O)(=O)N(Cc1ccc2ccc(C(=N)N)cc2c1)c1ccc(C(=O)N2CCCC2C(N)=O)cc1` (stereo not shown) [Example 24], the IC50 at factor Xa (read-out: XA, Examples 1-26 table) came out at 3.44 µM.

On thrombin, `CC(=N)N1CCC(Oc2ccc(N(Cc3cc(C)nn3-c3cccc(C(=N)N)c3)S(C)(=O)=O)cc2)CC1` [Compound 16] registered an IC50 above 11 µM.

For the molecule `CC(=N)N1CCC(Oc2ccc(N(Cc3cc4cc(C(=N)N)ccc4s3)S(=O)(=O)CC(=O)O)cc2)CC1` [Compound 43], the IC50 came to 7.6 nM at prothrombinase complex (setting [1]), 193 µM at thrombin and 0.0035 µM against factor Xa.

On to `CC(=N)N1CCC(Oc2ccc(N(Cc3cc4cc(C(=N)N)ccc4s3)S(C)(=O)=O)cc2)CC1` [Compound 13], for which the IC50 at thrombin was 30.9 µM.

Consider `CC(=N)N1CCC(Oc2ccc(N(Cc3ccc4ccc(C(=N)N)cc4c3)S(C)(=O)=O)cc2)CC1` [Compound 2], for which the IC50 at prothrombinase complex (setting [2]) is 7 nM; against thrombin, 95.2 µM; on factor Xa, 0.0063 µM.

As to `CC(=N)N1CCC(Oc2ccc3c(c2)C=CS(=O)(=O)N3Cc2ccc3ccc(C(=N)N)cc3c2)CC1` [Example 2], the IC50 at prothrombinase complex (read-out: IIASE) was found to be 64.6 nM; at TPA, 1.6 µM; at APC it was 1.88 µM; on PLASMIN it was 2.35 µM; at thrombin it was 117 µM; against factor Xa it was 0.00641 µM.

With `CC(=N)N1CCC(Oc2ccc3c(c2)CCS(=O)(=O)N3Cc2ccc3ccc(C(=N)N)cc3c2)CC1` [Example 6], the IC50 was 12.2 nM at prothrombinase complex (read-out: IIASE); 4.53 µM against TPA; 3.85 µM against APC; 2.36 µM at PLASMIN; 116 µM on thrombin; 0.012 µM at factor Xa.

As for `CCOC(=O)CS(=O)(=O)N(Cc1cc2cc(C(=N)N)ccc2s1)c1ccc(OC2CCN(C(C)=N)CC2)cc1` [Compound 42], the IC50 on prothrombinase complex (setting [1]) turned out to be 8.4 nM; against thrombin it was 12 µM; on factor Xa, 0.0091 µM.

With `CC(=N)N1CCC(Oc2ccc(N(Cc3cc(C)n(-c4cccc(C(=N)N)c4)n3)S(C)(=O)=O)cc2)CC1` [Compound 17], on thrombin, the IC50 was above 11 µM.

In the case of `N=C(N)c1ccc2ccc(CN3c4ccc(OC5CCNCC5)cc4CCS3(=O)=O)cc2c1` [Example 4], the IC50 is 2000 nM at prothrombinase complex (read-out: IIASE), 256 µM on thrombin and 1.18 µM at factor Xa.

Turning to `N=C(N)c1ccc2ccc(CN3c4ccc(OC5CCN(C(=N)N)CC5)cc4C=CS3(=O)=O)cc2c1` [Example 3], the IC50 at prothrombinase complex (read-out: IIASE) was 10 nM; against TPA it was 1.21 µM; on APC, 0.895 µM; against PLASMIN it was 1.14 µM; on thrombin, 16.7 µM; at factor Xa, 0.0113 µM.

Take `N=C(N)c1ccc2ccc(CN3c4ccc(OC5CCNCC5)cc4C=CS3(=O)=O)cc2c1` [Example 1]: the IC50 at prothrombinase complex (read-out: IIASE) came out at 15800 nM; on thrombin it was 136 µM; against factor Xa, 1.03 µM.

Take `CS(=O)(=O)N(Cc1ccc2ccc(C(=N)N)cc2c1)c1ccc(C(=O)N2CCC[C@H]2C(N)=O)cc1` [Compound 25]: the IC50 on prothrombinase complex (Table 5, read-out: IC50 (nM) Prothrombinase) was 95000 nM; against thrombin it was 146 µM; on factor Xa, 4.06 µM.

In the case of `CC(=N)N1CCC(Oc2ccc(N(Cc3cc4cc(C(=N)N)ccc4n3C)S(C)(=O)=O)cc2)CC1` [Compound 15], the figures for the IC50 at prothrombinase complex (setting [2]), on thrombin and against factor Xa were 66.5 nM, 11.8 µM and 0.0306 µM, respectively.

For `N=C(N)c1ccc2ccc(CN3c4ccc(OC5CCN(C(=N)N)CC5)cc4CCS3(=O)=O)cc2c1` [Example 7], the IC50 was found to be 33.2 nM on prothrombinase complex (read-out: IIASE); 5.96 µM on TPA; 3.37 µM against APC; 2.23 µM against PLASMIN; 24.8 µM on thrombin; 0.0153 µM at factor Xa.

Turning to `CC(=N)N1CCC(Oc2ccc(N(Cc3cccc(-c4cccc(C(=N)N)c4)c3)S(=O)(=O)CC(=O)O)cc2)CC1` [Compound 41], the IC50 was found to be 6.6 nM on prothrombinase complex (setting [1]), 39.2 µM against thrombin and 0.0036 µM against factor Xa.

As to `CC(=N)N1CCC(Oc2ccc(N(Cc3cccc(-c4cccc(C(=N)N)c4)c3)S(C)(=O)=O)cc2)CC1` [Compound 3], on thrombin, the IC50 was 133 µM.

With `NC(=O)c1ccc2ccc(CN3c4ccc(OC5CCNCC5)cc4CCS3(=O)=O)cc2c1` [Example 5], the values for the IC50 at prothrombinase complex (read-out: IIASE) and at factor Xa were 1290 nM and 1.31 µM, respectively.

For `CC(=N)N1CCC(Oc2ccc(N(Cc3ccc(-c4cccc(C(=N)N)c4)cc3)S(C)(=O)=O)cc2)CC1` [Compound 12], the IC50 on prothrombinase complex (Table 3, read-out: IC50 (nM) Prothrombinase) was 730 nM; on thrombin, above 11 µM; at factor Xa, 0.0252 µM.
